In the supplement of paper PMC10307832:

Experiments:
Assay in all cases: relative viability (nuclei count vs DMSO), 5 days (fraction); higher = more cells survive
Cediranib + AZD7762 = compound: COc1cc2c(Oc3ccc4[nH]c(C)cc4c3F)ncnc2cc1OCCCN1CCCC1 [Cediranib] + NC(=O)Nc1cc(-c2cccc(F)c2)sc1C(=O)N[C@H]1CCCNC1 [AZD7762] (partner 0.2 µM)
Method in brief: (§1)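 One day after seeding in 1536-well plates, lung cancer cell lines were dosed by pin tool. Dosing was either single-drug or a fixed anchor-drug dose plus five library-drug doses (not always all listed) in √10 steps. After 5 days, nuclei were stained in one fix-and-stain step and counted on 4× images, and relative viability is the nuclei count of treated wells over that of vehicle wells, given as the median of duplicate plates.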

Decitabine + Foretinib = compound: Nc1ncn([C@H]2C[C@H](O)[C@@H](CO)O2)c(=O)n1 [Decitabine] + COc1cc2c(Oc3ccc(NC(=O)C4(C(=O)Nc5ccc(F)cc5)CC4)cc3F)ccnc2cc1OCCCN1CCOCC1 [Foretinib] (partner 0.25 µM)
Method in brief: as §1

Decitabine + Linsitinib = compound: Nc1ncn([C@H]2C[C@H](O)[C@@H](CO)O2)c(=O)n1 [Decitabine] + C[C@]1(O)C[C@@H](c2nc(-c3ccc4ccc(-c5ccccc5)nc4c3)c3c(N)nccn32)C1 [Linsitinib] (partner 1 µM)
Method in brief: as §1

[1] = compound: O=C(C[C@H]1NCCC[C@@H]1O)Cn1cnc2cc(Br)c(Cl)cc2c1=O (racemic) [Halofuginone] + C[C@@H](Oc1cc(-c2cnn(C3CCNCC3)c2)cnc1N)c1c(Cl)ccc(F)c1Cl [Crizotinib] (partner 1 µM)
Method in brief: as §1

Cell Line | relative viability (Cediranib + AZD7762; first compound 0.04 µM) | relative viability (Cediranib + AZD7762; first compound 0.1265 µM) | relative viability (Cediranib + AZD7762; first compound 0.4 µM) | relative viability (Cediranib + AZD7762; first compound 1.265 µM) | relative viability (Cediranib + AZD7762; first compound 4 µM) | relative viability (Decitabine + Foretinib; first compound 0.04 µM) | relative viability (Decitabine + Foretinib; first compound 0.1265 µM) | relative viability (Decitabine + Foretinib; first compound 0.4 µM) | relative viability (Decitabine + Foretinib; first compound 1.265 µM) | relative viability (Decitabine + Foretinib; first compound 4 µM) | relative viability (Decitabine + Linsitinib; first compound 0.1265 µM) | relative viability (Decitabine + Linsitinib; first compound 0.4 µM) | relative viability (Decitabine + Linsitinib; first compound 1.265 µM) | relative viability (Decitabine + Linsitinib; first compound 4 µM) | relative viability ([1]; first compound 0.001 µM) | relative viability ([1]; first compound 0.003162 µM) | relative viability ([1]; first compound 0.01 µM) | relative viability ([1]; first compound 0.03162 µM) | relative viability ([1]; first compound 0.1 µM) | relative viability (Decitabine + Linsitinib; first compound 0.04 µM)
HCC-827 | 0.226 | 0.455 | 0.193 | 0.163 | 0.198 | 0.351 | 0.383 | 0.333 | 0.3 | 0.279 | 0.501 | 0.396 | 0.324 | 0.93 | 0.913 | 0.893 | 0.895 | 0.973 | 0.798 | –
HOP-62 | 0.612 | 0.397 | 0.263 | 0.446 | 0.712 | 0.773 | 0.53 | 0.315 | 0.197 | 0.218 | 0.307 | 0.159 | 0.138 | 1.05 | 0.905 | 0.958 | 0.971 | 0.972 | 0.676 | 0.617
LC-2-ad | 0.92 | 1.02 | 0.759 | 0.88 | 0.85 | 0.68 | 0.889 | 0.794 | 0.557 | 0.516 | 0.746 | 0.51 | 0.497 | 0.378 | 0.555 | 0.472 | 0.431 | 0.516 | 0.439 | 0.732
LCLC-97TM1 | 0.418 | – | 0.329 | 0.244 | 0.287 | 0.583 | 0.728 | 0.418 | 0.256 | 0.177 | 0.199 | 0.166 | 0.116 | 0.213 | 0.394 | 0.297 | 0.31 | 0.266 | 0.237 | 0.183
LCLC-103H | 0.829 | 1.01 | 0.724 | 0.826 | 0.858 | 0.945 | 0.807 | 0.717 | 0.636 | 0.519 | 1.13 | 1.12 | 0.882 | 0.888 | 1.09 | 1 | 0.972 | 0.948 | 0.85 | 1.06
LK-2 | 0.463 | 0.275 | 0.327 | 0.284 | 0.319 | 1.45 | 1.38 | 0.849 | 0.39 | 0.381 | 0.637 | 0.509 | 0.502 | 0.387 | 0.198 | 0.242 | 0.198 | 0.229 | 0.208 | 0.462
LOU-NH91 | 0.803 | 0.86 | 0.693 | 0.697 | 0.803 | 0.56 | 0.913 | 0.726 | 0.739 | 0.756 | 0.839 | 0.779 | 0.693 | 0.735 | 0.782 | 0.718 | 0.714 | 0.964 | 0.688 | 0.575
LU99A | 0.457 | – | 0.338 | 0.287 | 0.41 | 0.766 | 0.814 | 0.874 | 0.625 | 0.486 | 0.584 | 0.603 | 0.442 | 0.374 | 0.632 | 0.556 | 0.558 | 0.499 | 0.41 | 0.45
